Results: patent US12492337B2, “Fluorescent probe, preparation method therefor and use thereof” (FLUORESCENCE DIAGNOSIS (SHANGHAI) BIOTECH COMPANY, priority 2017, dated 2025)

How the values were obtained:
HaloTag protein tag = assay: Probe mixed with HaloTag protein tag, fluorescence spectrophotometer (Example 86); type: biochemical; details: 5 μM probe, 10 μM protein tag, 37° C., 1 hour; for Fluorescence enhancement: fluorescence activation multiple after binding protein tag; for Emission/nm: fluorescence emission wavelength
Experimental: (§1) A probe was mixed with a corresponding HaloTag protein tag to obtain a mixed sample. The final concentration of the probe in the mixed sample was 5 μM and the final concentration of the protein tag was 10 μM. The mixed sample was incubated at 37° C. for 1 hour, and the sample was detected using a fluorescence spectrophotometer.

[1] = Viscosity responsiveness: fluorescence intensity in glycerol versus methanol; type: physicochemical; details: fluorescence intensity in glycerol to that in methanol
Experimental: The above-mentioned viscosity-responsive fluorescent dye means that the fluorescence intensity of the dye responds to the viscosity of the solution. As the viscosity of the solution increases, the fluorescence intensity increases. Optionally, the viscosity-responsive fluorescent dye is an organic dye molecule which, under the same concentration and excitation wavelength, at 25° C. has a ratio • of the maximum fluorescence emission intensity of the dye in glycerol to the fluorescence intensity in methanol of greater than 2, optionally greater than 5, optionally greater than 10. The concentration of the viscosity-responsive dye ranges from 1×10^−7 M to 1×10^−5 M.

[2] = Quantum yield of free probe not reacted with protein tag; type: physicochemical
Experimental: as §1

CN(CCOC(=O)NCCOCCOCCCCCCCl)c1ccc2cc(/C=C(\C#N)c3nc4ccccc4o3)sc2c1 [Probe 14]
The quantum yield after binding to Halo-tag (HaloTag protein tag): 0.52
Fluorescence enhancement (HaloTag protein tag): 771
Emission/nm (HaloTag protein tag): 610 nm
ratio [1]: 560
The quantum yield of the free probe [2]: <0.001

CC(C)(C)OC(=O)/C(C#N)=C/c1cc2ccc(N(CCO)CCOC(=O)NCCOCCOCCCCCCCl)cc2s1 [Probe 15]
The quantum yield after binding to Halo-tag (HaloTag protein tag): 0.53
Fluorescence enhancement (HaloTag protein tag): 379
Emission/nm (HaloTag protein tag): 570 nm
ratio [1]: 320
The quantum yield of the free probe [2]: <0.001

CC1=N/C(=C\c2cc3ccc(N(C)CCOC(=O)NCCOCCOCCCCCCCl)cc3s2)C(=O)N1C [Probe 17]
The quantum yield after binding to Halo-tag (HaloTag protein tag): 0.56
Fluorescence enhancement (HaloTag protein tag): 498
Emission/nm (HaloTag protein tag): 575 nm
ratio [1]: 402
The quantum yield of the free probe [2]: <0.001

CN(CCOC(=O)NCCOCCOCCCCCCCl)c1ccc2cc(/C=C(\C#N)C(=O)O)sc2c1 [Probe 18]
The quantum yield after binding to Halo-tag (HaloTag protein tag): 0.51
Fluorescence enhancement (HaloTag protein tag): 444
Emission/nm (HaloTag protein tag): 568 nm
ratio [1]: 301
The quantum yield of the free probe [2]: 0.0017

CN(CCOC(=O)NCCOCCOCCCCCCCl)c1ccc2nc(/C=C(\C#N)C(=O)OC(C)(C)C)oc2c1 [Probe 19]
The quantum yield after binding to Halo-tag (HaloTag protein tag): 0.53
Fluorescence enhancement (HaloTag protein tag): 561
Emission/nm (HaloTag protein tag): 625 nm
ratio [1]: 299
The quantum yield of the free probe [2]: 0.0012

CN(CCOC(=O)NCCOCCOCCCCCCCl)c1ccc2nc(/C=C(\C#N)c3nc4ccccc4o3)oc2c1 [Probe 20]
The quantum yield after binding to Halo-tag (HaloTag protein tag): 0.47
Fluorescence enhancement (HaloTag protein tag): 612
Emission/nm (HaloTag protein tag): 640 nm
ratio [1]: 341
The quantum yield of the free probe [2]: <0.001

CN(CCOC(=O)NCCOCCOCCCCCCCl)c1ccc2nc(/C=C(\C#N)C(=O)O)oc2c1 [Probe 21]
The quantum yield after binding to Halo-tag (HaloTag protein tag): 0.48
Fluorescence enhancement (HaloTag protein tag): 560
Emission/nm (HaloTag protein tag): 628 nm
ratio [1]: 1481
The quantum yield of the free probe [2]: <0.001

CN1C(=O)/C(=C/c2nc3ccc(N(C)CCOC(=O)NCCOCCOCCCCCCCl)cc3o2)N=C1c1ccccc1 [Probe 22]
The quantum yield after binding to Halo-tag (HaloTag protein tag): 0.36
Fluorescence enhancement (HaloTag protein tag): 610
Emission/nm (HaloTag protein tag): 632 nm
ratio [1]: 1821
The quantum yield of the free probe [2]: <0.001

CN(CCOC(=O)NCCOCCOCCCCCCCl)c1ccc2nc(/C=C(\C#N)c3nc4ccccc4s3)oc2c1 [Probe 23]
The quantum yield after binding to Halo-tag (HaloTag protein tag): 0.52
Fluorescence enhancement (HaloTag protein tag): 712
Emission/nm (HaloTag protein tag): 637 nm
ratio [1]: 1235
The quantum yield of the free probe [2]: <0.001

CN(CCOC(=O)NCCOCCOCCCCCCCl)c1ccc2nc(/C=C(\C#N)C(=O)OC(C)(C)C)sc2c1 [Probe 24]
The quantum yield after binding to Halo-tag (HaloTag protein tag): 0.52
Fluorescence enhancement (HaloTag protein tag): 590
Emission/nm (HaloTag protein tag): 622 nm
ratio [1]: 1681
The quantum yield of the free probe [2]: <0.001

CN(CCOC(=O)NCCOCCOCCCCCCCl)c1ccc2nc(/C=C(\C#N)C(=O)O)sc2c1 [Probe 25]
The quantum yield after binding to Halo-tag (HaloTag protein tag): 0.51
Fluorescence enhancement (HaloTag protein tag): 670
Emission/nm (HaloTag protein tag): 620 nm
ratio [1]: 1621
The quantum yield of the free probe [2]: <0.001

CN(CCOC(=O)NCCOCCOCCCCCCCl)c1ccc2nc(/C=C(\C#N)C(=O)OC(C)(C)C)ccc2c1 [Probe 26]
The quantum yield after binding to Halo-tag (HaloTag protein tag): 0.56
Fluorescence enhancement (HaloTag protein tag): 910
Emission/nm (HaloTag protein tag): 590 nm
ratio [1]: 1123
The quantum yield of the free probe [2]: <0.001

CN(CCOC(=O)NCCOCCOCCCCCCCl)c1ccc2nc(/C=C(\C#N)c3nc4ccccc4o3)ccc2c1 [Probe 27]
The quantum yield after binding to Halo-tag (HaloTag protein tag): 0.43
Fluorescence enhancement (HaloTag protein tag): 665
Emission/nm (HaloTag protein tag): 620 nm
ratio [1]: 1134
The quantum yield of the free probe [2]: <0.001

CN(CCOC(=O)NCCOCCOCCCCCCCl)c1ccc(C#C/C=C(\C#N)C(=O)OC(C)(C)C)cc1 [Probe 28]
The quantum yield after binding to Halo-tag (HaloTag protein tag): 0.41
Fluorescence enhancement (HaloTag protein tag): 551
Emission/nm (HaloTag protein tag): 566 nm
ratio [1]: 1132
The quantum yield of the free probe [2]: <0.001

CN(CCOC(=O)NCCOCCOCCCCCCCl)c1cc2sc3cc(/C=C(\C#N)C(=O)OC(C)(C)C)sc3c2s1 [Probe 29]
The quantum yield after binding to Halo-tag (HaloTag protein tag): 0.53
Fluorescence enhancement (HaloTag protein tag): 621
Emission/nm (HaloTag protein tag): 640 nm
ratio [1]: 998
The quantum yield of the free probe [2]: <0.001

CN(CCOC(=O)NCCOCCOCCCCCCCl)c1cc2sc3cc(/C=C(\C#N)c4nc5ccccc5o4)sc3c2s1 [Probe 30]
The quantum yield after binding to Halo-tag (HaloTag protein tag): 0.60
Fluorescence enhancement (HaloTag protein tag): 535
Emission/nm (HaloTag protein tag): 620 nm
ratio [1]: 1125
The quantum yield of the free probe [2]: <0.001

CN(CCOC(=O)NCCOCCOCCCCCCCl)c1cc2sc3cc(/C=C(\C#N)c4nc5ccccc5s4)sc3c2s1 [Probe 31]
The quantum yield after binding to Halo-tag (HaloTag protein tag): 0.41
Fluorescence enhancement (HaloTag protein tag): 875
Emission/nm (HaloTag protein tag): 660 nm
ratio [1]: 1135
The quantum yield of the free probe [2]: <0.001

CN(CCOC(=O)NCCOCCOCCCCCCCl)c1ccc2c(c1)sc1cc(/C=C(\C#N)C(=O)OC(C)(C)C)sc12 [Probe 32]
The quantum yield after binding to Halo-tag (HaloTag protein tag): 0.46
Fluorescence enhancement (HaloTag protein tag): 638
Emission/nm (HaloTag protein tag): 609 nm
ratio [1]: 997
The quantum yield of the free probe [2]: <0.001

CN(CCOC(=O)NCCOCCOCCCCCCCl)c1ccc(-c2ccc(/C=C(\C#N)C(=O)OC(C)(C)C)s2)cc1 [Probe 33]
The quantum yield after binding to Halo-tag (HaloTag protein tag): 0.47
Fluorescence enhancement (HaloTag protein tag): 957
Emission/nm (HaloTag protein tag): 620 nm
ratio [1]: 1781
The quantum yield of the free probe [2]: <0.001

COCCNC(=O)/C(C#N)=C/c1ccc(-c2ccc(N(C)CCOC(=O)NCCOCCOCCCCCCCl)cc2)o1 [Probe 34]
The quantum yield after binding to Halo-tag (HaloTag protein tag): 0.32
Fluorescence enhancement (HaloTag protein tag): 857
Emission/nm (HaloTag protein tag): 615 nm
ratio [1]: 1774
The quantum yield of the free probe [2]: <0.001

CN(CCOC(=O)NCCOCCOCCCCCCCl)c1ccc(-c2ccc(/C=C(\C#N)C(=O)O)s2)cc1 [Probe 35]
The quantum yield after binding to Halo-tag (HaloTag protein tag): 0.45
Fluorescence enhancement (HaloTag protein tag): 433
Emission/nm (HaloTag protein tag): 618 nm
ratio [1]: 972
The quantum yield of the free probe [2]: 0.0012

CN(CCOC(=O)NCCOCCOCCCCCCCl)c1cc2cc3sc(/C=C(\C#N)C(=O)OC(C)(C)C)cc3cc2s1 [Probe 36]
The quantum yield after binding to Halo-tag (HaloTag protein tag): 0.58
Fluorescence enhancement (HaloTag protein tag): 488
Emission/nm (HaloTag protein tag): 630 nm
ratio [1]: 1258
The quantum yield of the free probe [2]: 0.001

CN(CCOC(=O)NCCOCCOCCCCCCCl)c1cc2c(s1)-c1sc(C=C(C#N)C#N)cc1[Si]2(C)C [Probe 37]
The quantum yield after binding to Halo-tag (HaloTag protein tag): 0.56
Fluorescence enhancement (HaloTag protein tag): 469
Emission/nm (HaloTag protein tag): 655 nm
ratio [1]: 1135
The quantum yield of the free probe [2]: 0.0012

CN(CCOC(=O)NCCOCCOCCCCCCCl)c1cc2c(s1)-c1sc(/C=C(\C#N)C(=O)OC(C)(C)C)cc1[Si]2(C)C [Probe 38]
The quantum yield after binding to Halo-tag (HaloTag protein tag): 0.56
Fluorescence enhancement (HaloTag protein tag): 503
Emission/nm (HaloTag protein tag): 650 nm
ratio [1]: 1011
The quantum yield of the free probe [2]: 0.0011

CN(CCOC(=O)NCCOCCOCCCCCCCl)c1cc2c(s1)-c1sc(/C=C(\C#N)c3nc4ccccc4s3)cc1[Si]2(C)C [Probe 39]
The quantum yield after binding to Halo-tag (HaloTag protein tag): 0.38
Fluorescence enhancement (HaloTag protein tag): 335
Emission/nm (HaloTag protein tag): 700 nm
ratio [1]: 892
The quantum yield of the free probe [2]: 0.0016

CN(CCOC(=O)NCCOCCOCCCCCCCl)c1ccc(-c2ccc(/C=C(\C#N)C(=O)OC(C)(C)C)s2)s1 [Probe 40]
The quantum yield after binding to Halo-tag (HaloTag protein tag): 0.47
Fluorescence enhancement (HaloTag protein tag): 421
Emission/nm (HaloTag protein tag): 657 nm
ratio [1]: 759
The quantum yield of the free probe [2]: 0.001

COCCNC(=O)/C(C#N)=C/c1ccc(-c2ccc(N(C)CCOC(=O)NCCOCCOCCCCCCCl)s2)s1 [Probe 41]
The quantum yield after binding to Halo-tag (HaloTag protein tag): 0.44
Fluorescence enhancement (HaloTag protein tag): 418
Emission/nm (HaloTag protein tag): 700 nm
ratio [1]: 101
The quantum yield of the free probe [2]: 0.0015

CN(CCOC(=O)NCCOCCOCCCCCCCl)c1ccc(-c2ccc(/C=C(\C#N)c3nc4ccccc4o3)s2)s1 [Probe 42]
The quantum yield after binding to Halo-tag (HaloTag protein tag): 0.39
Fluorescence enhancement (HaloTag protein tag): 375
Emission/nm (HaloTag protein tag): 702 nm
ratio [1]: 178
The quantum yield of the free probe [2]: 0.0013

CC(C)(C)OC(=O)/C(C#N)=C/c1ccc2c(c1)SCCN2CCOC(=O)NCCOCCOCCCCCCCl [Probe 44]
The quantum yield after binding to Halo-tag (HaloTag protein tag): 0.63
Fluorescence enhancement (HaloTag protein tag): 1586
Emission/nm (HaloTag protein tag): 521 nm
ratio [1]: 1459
The quantum yield of the free probe [2]: <0.001

N#C/C(=C\c1ccc2c(c1)SCCN2CCOC(=O)NCCOCCOCCCCCCCl)c1nc2ccccc2o1 [Probe 45]
The quantum yield after binding to Halo-tag (HaloTag protein tag): 0.54
Fluorescence enhancement (HaloTag protein tag): 958
Emission/nm (HaloTag protein tag): 545 nm
ratio [1]: 752
The quantum yield of the free probe [2]: <0.001

CC1=CC(C)(C)N(CCOC(=O)NCCOCCOCCCCCCCl)c2ccc(/C=C(\C#N)C(=O)OC(C)(C)C)cc21 [Probe 46]
The quantum yield after binding to Halo-tag (HaloTag protein tag): 0.58
Fluorescence enhancement (HaloTag protein tag): 563
Emission/nm (HaloTag protein tag): 520 nm
ratio [1]: 682
The quantum yield of the free probe [2]: <0.001
